Results reported in ChEMBL document CHEMBL4619796, “Discovery of 3-Quinazolin-4(3H)-on-3-yl-2,N-dimethylpropanamides as Orally Active and Selective PI3Kα Inhibitors” (ACS Med Chem Lett, 2020).

What was measured:
[1] = species: Homo sapiens; assay: Selectivity ratio of IC50 for PI3Kbeta (unknown origin) using PIP2:3PS peptide as substrate preincubated for 15 mins followed by ATP addition at Km concentration and further incubated for 120 mins by ADP-Glo assay to IC50 for PI3Kalpha (unknown origin) using PIP2:3PS peptide as substrate preincubated for 15 mins followed by ATP addition at Km concentration and further incubated for 150 mins by ADP-Glo assay
[2] = species: Homo sapiens; assay: Selectivity ratio of IC50 for PI3Kgamma (unknown origin) using PIP2:3PS peptide as substrate preincubated for 15 mins followed by ATP addition at Km concentration and further incubated for 120 mins by ADP-Glo assay to IC50 for PI3Kalpha (unknown origin) using PIP2:3PS peptide as substrate preincubated for 15 mins followed by ATP addition at Km concentration and further incubated for 150 mins by ADP-Glo assay
[3] = Inhibition of PI3K in human MCF7 cells assessed as reduction in AKT phosphorylation at residue S473 incubated for 2 hrs followed by insulin addition by ELISA; type: cell-based; conditions: MCF7, 2 h
[4] = species: Homo sapiens; assay: Selectivity ratio of IC50 for PI3Kdelta (unknown origin) using PIP2:3PS peptide as substrate preincubated for 15 mins followed by ATP addition at Km concentration and further incubated for 120 mins by ADP-Glo assay to IC50 for PI3Kalpha (unknown origin) using PIP2:3PS peptide as substrate preincubated for 15 mins followed by ATP addition at Km concentration and further incubated for 150 mins by ADP-Glo assay
[5] = target: Phosphatidylinositol 4,5-bisphosphate 3-kinase catalytic subunit alpha isoform (Homo sapiens, UniProt P42336); assay: Inhibition of PI3Kalpha (unknown origin) using PIP2:3PS peptide as substrate preincubated for 15 mins followed by ATP addition at Km concentration and further incubated for 150 mins by ADP-Glo assay
Phosphatidylinositol 4,5-bisphosphate 3-kinase catalytic subunit alpha isoform, sequence (P42336 whole entry, canonical isoform): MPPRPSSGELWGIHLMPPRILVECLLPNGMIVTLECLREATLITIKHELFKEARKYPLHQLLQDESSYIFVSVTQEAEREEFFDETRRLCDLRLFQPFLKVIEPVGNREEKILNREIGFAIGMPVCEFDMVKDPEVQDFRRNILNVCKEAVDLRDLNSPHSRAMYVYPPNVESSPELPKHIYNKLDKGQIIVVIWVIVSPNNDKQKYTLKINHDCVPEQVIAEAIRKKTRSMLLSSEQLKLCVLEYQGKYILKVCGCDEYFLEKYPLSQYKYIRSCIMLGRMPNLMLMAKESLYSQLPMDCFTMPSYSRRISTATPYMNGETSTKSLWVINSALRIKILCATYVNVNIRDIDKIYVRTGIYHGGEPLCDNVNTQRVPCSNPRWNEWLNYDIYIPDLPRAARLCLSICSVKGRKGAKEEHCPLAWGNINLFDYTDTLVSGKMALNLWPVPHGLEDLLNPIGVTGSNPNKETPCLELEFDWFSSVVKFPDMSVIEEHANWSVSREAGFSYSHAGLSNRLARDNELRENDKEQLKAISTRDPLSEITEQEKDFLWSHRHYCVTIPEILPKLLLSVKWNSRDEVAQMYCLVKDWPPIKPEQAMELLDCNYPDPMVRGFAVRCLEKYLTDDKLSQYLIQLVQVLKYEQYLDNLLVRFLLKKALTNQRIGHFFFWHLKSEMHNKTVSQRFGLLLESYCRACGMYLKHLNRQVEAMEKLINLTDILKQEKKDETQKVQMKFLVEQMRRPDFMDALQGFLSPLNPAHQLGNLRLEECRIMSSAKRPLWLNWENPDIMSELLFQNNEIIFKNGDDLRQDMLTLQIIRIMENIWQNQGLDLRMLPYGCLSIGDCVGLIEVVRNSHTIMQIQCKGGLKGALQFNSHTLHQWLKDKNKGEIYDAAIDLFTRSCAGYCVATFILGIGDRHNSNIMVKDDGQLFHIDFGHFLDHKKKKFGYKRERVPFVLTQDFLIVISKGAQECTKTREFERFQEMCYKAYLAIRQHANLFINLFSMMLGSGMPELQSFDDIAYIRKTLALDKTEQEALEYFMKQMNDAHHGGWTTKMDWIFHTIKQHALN

SMILES	Ratio IC50 [1]	Ratio IC50 [2]	IC50 [3]	Ratio IC50 [4]	IC50 [5]
COc1ncc(-c2ccc3ncn(CC4(C(N)=O)CC4)c(=O)c3c2)cc1NS(=O)(=O)c1ccc(F)cc1Cl	14.4	3.61	39.9 nM	0.35	–
CNC(=O)C(C)Cn1cnc2ccc(-c3cnc(OC(F)(F)F)c(NS(=O)(=O)c4ccc(F)cc4Cl)c3)cc2c1=O (racemic)	94.9	–	> 1000 nM	–	–
COc1ncc(-c2ccc3ncn(CCCC(N)=O)c(=O)c3c2)cc1NS(=O)(=O)c1ccc(F)cc1Cl	30	–	9.43 nM	1.91	1.1 nM
COc1ncc(-c2ccc3ncn(C[C@@H](C)C(=O)NC4CC4)c(=O)c3c2)cc1NS(=O)(=O)c1ccc(F)cc1Cl	224	5.44	170 nM	2.61	2.7 nM
COc1ncc(-c2ccc3ncn(C[C@@H](C)C(=O)NCC(F)(F)F)c(=O)c3c2)cc1NS(=O)(=O)c1ccc(F)cc1Cl	107	9.87	56.1 nM	3.41	5.5 nM
CCN(CC)C(=O)[C@H](C)Cn1cnc2ccc(-c3cnc(OC)c(NS(=O)(=O)c4ccc(F)cc4Cl)c3)cc2c1=O	5.97	1.04	–	0.63	25.8 nM
COc1ncc(-c2ccc3ncn(CCC(N)=O)c(=O)c3c2)cc1NS(=O)(=O)c1ccc(F)cc1Cl	59	3.94	16.8 nM	3.34	1.2 nM
COc1ncc(-c2ccc3ncn(C[C@@H](C)C(=O)N4CCOCC4)c(=O)c3c2)cc1NS(=O)(=O)c1ccc(F)cc1Cl	18.3	0.71	–	0.38	11.5 nM
CNC(=O)[C@H](C)Cn1cnc2ccc(-c3cnc(OC)c(NS(=O)(=O)c4cccnc4)c3)cc2c1=O	–	–	> 1000 nM	–	–
COc1ncc(-c2ccc3ncc(NC(=O)N4CCC[C@H]4C(N)=O)c(=O)n3c2)cc1NS(=O)(=O)c1ccc(F)cc1Cl	130	7.4	188 nM	3.4	0.5 nM
CNC(=O)[C@H](C)Cn1cnc2ccc(-c3cnc(OC)c(NS(=O)(=O)c4sccc4C)c3)cc2c1=O	43.1	–	–	–	4.1 nM
CNC(=O)[C@H](C)Cn1cnc2ccc(-c3cnc(N)c(NS(=O)(=O)c4ccc(F)cc4Cl)c3)cc2c1=O	283	–	> 1000 nM	–	19.3 nM
CCC(Cn1cnc2ccc(-c3cnc(OC)c(NS(=O)(=O)c4ccc(F)cc4Cl)c3)cc2c1=O)C(N)=O (racemic)	19.3	–	52.3 nM	–	–
CNC(=O)[C@H](C)Cn1cnc2ccc(-c3cnc(OC4CC4)c(NS(=O)(=O)c4ccc(F)cc4Cl)c3)cc2c1=O	–	–	55.3 nM	–	–
COc1ncc(-c2ccc3ncn(CC(F)(F)C(N)=O)c(=O)c3c2)cc1NS(=O)(=O)c1ccc(F)cc1Cl	46.6	3.15	–	2.69	2.7 nM
CNC(=O)C(C)Cn1cnc2ccc(-c3cnc(C(F)(F)F)c(NS(=O)(=O)c4ccc(F)cc4Cl)c3)cc2c1=O (racemic)	196	–	972 nM	–	0.6 nM
CNC(=O)[C@H](C)Cn1cnc2ccc(-c3cnc(OC)c(NS(=O)(=O)c4sc(C)nc4C)c3)cc2c1=O	115	11.7	10.9 nM	2.08	0.5 nM
CNC(=O)[C@H](C)Cn1cnc2ccc(-c3cnc(N(C)C)c(NS(=O)(=O)c4ccc(F)cc4Cl)c3)cc2c1=O	59.5	–	–	–	8.4 nM
CNC(=O)[C@@H](C)Cn1cnc2ccc(-c3cnc(OC)c(NS(=O)(=O)c4ccc(F)cc4Cl)c3)cc2c1=O	–	–	–	–	2.3 nM

SMILES	Ratio IC50 [1]	Ratio IC50 [2]	IC50 [3]	Ratio IC50 [4]	IC50 [5]
CCC(CC)NC(=O)[C@H](C)Cn1cnc2ccc(-c3cnc(OC)c(NS(=O)(=O)c4ccc(F)cc4Cl)c3)cc2c1=O	259	7.92	373 nM	3.11	19.6 nM
CCOc1ncc(-c2ccc3ncn(C[C@@H](C)C(=O)NC)c(=O)c3c2)cc1NS(=O)(=O)c1ccc(F)cc1Cl	153	–	116 nM	–	13.7 nM
CNC(=O)[C@H](C)Cn1cnc2ccc(-c3cnc(OC(C)C)c(NS(=O)(=O)c4ccc(F)cc4Cl)c3)cc2c1=O	–	–	387 nM	–	–
CCc1ncc(-c2ccc3ncn(C[C@@H](C)C(=O)NC)c(=O)c3c2)cc1NS(=O)(=O)c1ccc(F)cc1Cl	309	14.4	347 nM	13.8	6 nM
COc1ncc(-c2ccc3ncn(C[C@@H](C)C(=O)N(C)C(C)C)c(=O)c3c2)cc1NS(=O)(=O)c1ccc(F)cc1Cl	16.6	1.06	–	0.78	19.6 nM
CNC(=O)[C@H](C)Cn1cnc2ccc(-c3cnc(OC)c(NS(=O)(=O)c4ccc(Cl)c(Cl)c4)c3)cc2c1=O	6.62	–	–	–	10 nM
CNC(=O)[C@H](C)Cn1cnc2ccc(-c3cnc(C)c(NS(=O)(=O)c4ccc(F)cc4Cl)c3)cc2c1=O	406	21	397 nM	17	3 nM
COc1ncc(-c2ccc3ncn(C[C@@H](C)C(=O)NCCO)c(=O)c3c2)cc1NS(=O)(=O)c1ccc(F)cc1Cl	151	6.34	339 nM	6.8	1.7 nM
COc1ncc(-c2ccc3ncn(CC(C(N)=O)C(C)C)c(=O)c3c2)cc1NS(=O)(=O)c1ccc(F)cc1Cl (racemic)	32.6	–	125 nM	–	–
COc1ncc(-c2ccc3ncn(C[C@@H](C)C(=O)NC4COC4)c(=O)c3c2)cc1NS(=O)(=O)c1ccc(F)cc1Cl	262	–	190 nM	–	2.1 nM
COc1ncc(-c2ccc3ncn(C[C@@H](C)C(=O)NCC(C)C)c(=O)c3c2)cc1NS(=O)(=O)c1ccc(F)cc1Cl	424	6.38	81.1 nM	3.03	8 nM
CNC(=O)[C@H](C)Cn1cnc2ccc(-c3cnc(OC)c(NS(=O)(=O)c4cc(C(F)(F)F)cc(C(F)(F)F)c4)c3)cc2c1=O	109	17.3	–	19.4	20.8 nM
COc1ncc(-c2ccc3ncn(CC(N)C(N)=O)c(=O)c3c2)cc1NS(=O)(=O)c1ccc(F)cc1Cl (racemic)	33.9	7.39	134 nM	4.75	–
CNC(=O)[C@H](C)Cn1cnc2ccc(-c3cnc(OC)c(NS(=O)(=O)c4c(C)noc4C)c3)cc2c1=O	146	10	–	4.52	4.3 nM
CCNC(=O)[C@H](C)Cn1cnc2ccc(-c3cnc(OC)c(NS(=O)(=O)c4ccc(F)cc4Cl)c3)cc2c1=O	187	6.28	40.5 nM	5.63	3.5 nM
COc1ncc(-c2ccc3ncn(C[C@@H](C)C(=O)NC4CC4(F)F)c(=O)c3c2)cc1NS(=O)(=O)c1ccc(F)cc1Cl (stereo partly drawn)	116	–	–	–	6.2 nM
CNC(=O)[C@H](C)Cn1cnc2ccc(-c3cnc(CO)c(NS(=O)(=O)c4ccc(F)cc4Cl)c3)cc2c1=O	> 334	12.5	> 1000 nM	17.9	30 nM
CNC(=O)[C@H](C)Cn1cnc2ccc(-c3cnc(COC)c(NS(=O)(=O)c4ccc(F)cc4Cl)c3)cc2c1=O	–	–	> 1000 nM	–	> 1000 nM
